{
  "source": "patent US9238020B2",
  "about": "“Compositions comprising enzyme-cleavable phenol-modified tapentadol prodrug” (priority 2010, dated 2016)",
  "key": {"[1]": {"assay": "Oral administration of tapentadol prodrugs with or without co-dose of trypsin inhibitor Compound 109 to rats", "type": "in vivo, rat", "conditions": "by suppressing Cmax and AUC and/or delaying Tmax", "method": "Saline solutions of Compound TP-1 (which can be prepared as described in the examples herein) were dosed at 39 μmol/kg (25 mg/kg) with or without a co-dose of 55 μmol/kg (30 mg/kg) Compound 109 (Catalog No. 3081, Tocris Bioscience, Ellisville, Mo., USA or Catalog No. WS38665, Waterstone Technology, Carmel, Ind., USA) as indicated in Table 3 via oral gavage into jugular vein-cannulated male Sprague Dawley rats (4 per groups) that had been fasted for 16-18 hr prior to oral dosing. At specified time points, blood samples were drawn, harvested for plasma via centrifugation at 5,400 rpm at 4° C. for 5 min, and 100 μl plasma transferred from each sample into a fresh tube containing 2 μl of 50% formic acid. The tubes were vortexed for 5-10 seconds, immediately placed in dry ice and then stored in a −80° C. freezer until analysis by HPLC/MS.\nTable 3 and FIG. 5 provide tapentadol exposure results for rats administered with Compound TP-1 in the absence or presence of trypsin inhibitor.\nSaline solutions of Compound TP-3 or Compound TP-4 (which can be prepared as described in the examples herein) were dosed as indicated in Table 9 and according to the procedures as described in Example 13. Sampling and analysis procedures were as described in Example 13. […]"}, "[2]": {"assay": "Pharmacokinetics of prodrug and tapentadol following IV administration to rats", "conditions": "male, Sprague Dawley, in vivo; Table 7; prodrug in rat plasma; IV 2 mg/kg; read-out: Prodrug Cmax ± sd", "method": "Compound TP-1 (which can be prepared as described in the examples herein) was dissolved in saline and injected into the tail vein of 4 jugular vein-cannulated male Sprague Dawley rats at a dose of 2 mg/kg. At specified time points, blood samples were drawn, harvested for plasma via centrifugation at 5,400 rpm at 4° C. for 5 min, and 100 μl plasma transferred from each sample into a fresh tube containing 2 μl of 50% formic acid. The tubes were vortexed for 5-10 seconds, immediately placed in dry ice and then stored in a −80° C. freezer until analysis by high performance liquid chromatography/mass spectrometry (HPLC/MS).\nTable 2 and FIG. 4 provide Compound TP-1 and tapentadol exposure results for rats administered Compound TP-1 intravenously. Results in Table 2 are reported as maximum plasma concentration (Cmax) of Compound TP-1 and tapentadol (TP), respectively, (average±standard deviation).\nCompound TP-3 or Compound TP-4 (which can be prepared as described in the examples herein), or tapentadol were dissolved in saline and injected into the tail vein of four jugular vein-cannulated male Sprague Dawley rats at a dose of 2 mg/kg. Sampling and analysis procedures were as described in Example 12."}, "[3]": {"assay": "Pharmacokinetics of tapentadol release following PO administration of prodrugs or tapentadol to rats", "type": "in vivo, rat", "conditions": "approximately equimole amounts", "method": "Saline solutions of Compound TP-1 (which can be prepared as described in the examples herein) were dosed as indicated in Table 1 via oral gavage into 4 jugular vein-cannulated male Sprague Dawley rats that had been fasted for 16-18 hr prior to oral dosing. At specified time points, blood samples were drawn, harvested for plasma via centrifugation at 5,400 rpm at 4° C. for 5 min, and 100 microliters (μl) plasma transferred from each sample into a fresh tube containing 2 μl of 50% formic acid. The tubes were vortexed for 5-10 seconds, immediately placed in dry ice and then stored in a −80° C. freezer until analysis by HPLC/MS.\nSaline solutions of Compounds TP-1, TP-3, TP-4, (which can be prepared as described in the examples herein) or tapentadol were dosed in approximately equimole amounts as indicated in Table 6. Dose administration, sampling and analysis procedures were as described in Example 11.\nDosing, sampling and analysis procedures were as described in Example 11."}, "[4]": {"target": "T1, trypsin (Bos taurus, UniProt P00760)", "T1 construct": "purchased Sigma-Aldrich T8003; host or cells: bovine pancreas", "T1 sequence (P00760 24-246)": "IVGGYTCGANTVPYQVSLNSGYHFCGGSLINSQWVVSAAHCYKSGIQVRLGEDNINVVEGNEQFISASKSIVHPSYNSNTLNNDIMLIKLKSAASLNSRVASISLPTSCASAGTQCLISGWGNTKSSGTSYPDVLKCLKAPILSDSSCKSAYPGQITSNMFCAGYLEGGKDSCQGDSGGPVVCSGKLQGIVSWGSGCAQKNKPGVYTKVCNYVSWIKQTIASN", "assay": "In vitro trypsin conversion of prodrug to tapentadol and inhibition thereof by Compound 109", "type": "biochemical, bovine", "conditions": "bovine, trypsin from bovine pancreas, Table 8, 4815 BAEE U trypsin/mL, read-out: Pro-drug trypsin half-life, Average ± sd (converted)", "method": "(§1) Compound TP-1 was incubated with trypsin from bovine pancreas (Catalog No. T8003, Type I, ˜10,000 BAEE units/mg protein, Sigma-Aldrich). Specifically, the reactions included 0.761 nM of Compound TP-1•2HCl, 22.5 mM calcium chloride, 40 to 172 mM Tris pH 8 and 0.25% DMSO with the BAEE units of trypsin indicated in Table 4. The reactions were conducted at 37° C. for 24 hr. Samples were collected at specified time points, transferred into 0.5% formic acid in acetonitrile to stop trypsin activity and stored at less than −70° C. until analysis by LC-MS/MS.\n(§2) Compound TP-1 was also incubated in the presence of 2 micromolar (μM) trypsin inhibitor Compound 109. In that case, Compound TP-1 was added 5 min after the other incubation components. Other reaction and sample treatment conditions were as described above.\n(§3) Table 4 indicates the results of exposure of Compound TP-1 to trypsin in the absence or presence of trypsin inhibitor. The results are expressed as half-life of prodrug when exposed to trypsin (i.e., Prodrug trypsin half-life) in hours and rate of tapentadol (TP) formation in umol/h/BAEE U trypsin.\n(§4) Compound TP-1, Compound TP-3, or Compound TP-4 (which can be prepared as described in the examples herein) were incubated in the absence or presence of Compound 109 as shown in Table 8. Incubations and analysis procedures were as described in Example 14."}, "[5]": {"target": "T2, trypsin from bovine pancreas (Bos taurus, UniProt P00760)", "T2 construct": "purchased Sigma-Aldrich T8003; host or cells: bovine pancreas", "T2 sequence (P00760 24-246)": "T1 sequence (P00760 24-246)", "assay": "In vitro trypsin conversion of prodrug to tapentadol and inhibition thereof by Compound 109", "type": "biochemical", "conditions": "Table 8, 4815 BAEE U trypsin/mL", "method": "as §1, §2, §3, §4"}, "[6]": {"target": "human μ-opioid receptor (Homo sapiens, UniProt P35372)", "sequence (P35372 whole entry)": "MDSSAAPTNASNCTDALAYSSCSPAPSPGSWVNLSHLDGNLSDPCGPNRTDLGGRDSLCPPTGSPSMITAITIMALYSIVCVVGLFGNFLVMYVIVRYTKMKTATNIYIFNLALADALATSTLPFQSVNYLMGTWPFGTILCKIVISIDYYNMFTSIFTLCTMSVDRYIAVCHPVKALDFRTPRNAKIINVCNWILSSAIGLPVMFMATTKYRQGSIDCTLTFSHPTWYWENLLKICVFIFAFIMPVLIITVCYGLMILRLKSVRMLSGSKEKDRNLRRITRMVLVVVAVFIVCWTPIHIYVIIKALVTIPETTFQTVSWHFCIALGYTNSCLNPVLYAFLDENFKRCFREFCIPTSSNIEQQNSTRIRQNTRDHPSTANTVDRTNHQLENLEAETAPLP", "assay": "In vitro human μ-opioid receptor agonist cellular functional assay (cAMP, CHO cells)", "type": "cell-based", "parameters": "expressed in transfected cells", "conditions": "CHO cells expressing human μ-opioid receptor, 37° C., 10 min", "method": "The general procedure follows the protocol described by J.-B. Wang, et al, ibid. More specifically, the assay included as appropriate, Compound TP-1 or tapentadol and recombinant Chinese hamster ovary (CHO) cells expressing the human μ-opioid receptor on their cell surfaces. The control reaction included 1 μM DAMGO. The reaction mixtures were incubated at 37° C. for 10 min, and the reaction product was cyclic AMP (cAMP). The samples were submitted to homogeneous time resolved fluorescence (HTRF®). EC50 values (concentration producing a half-maximal specific response) were determined by non-linear regression fit using Hill plot software."}, "[7]": {"assay": "Plasma and cerebrospinal fluid penetration following IV administration to rats", "type": "in vivo, rat", "conditions": "rats, IV, 2 minutes after dosing", "method": "Compound TP-1 (which can be prepared as described in the examples herein) at a dose of 10 mg/kg, or tapentadol, at a dose of 4 mg/kg, were dissolved in saline and injected into the tail vein of 4 male Sprague Dawley rats. These doses represent approximately equimole amounts. After 2 minutes, the rats were anesthetized by carbon dioxide asphyxiation, blood samples were drawn and harvested for plasma by centrifugation at 5,400 rpm at 4° C. for 5 min, and 100 μl plasma was transferred from each sample into a fresh tube containing 2 μl of 50% formic acid. The CSF fluid was collected using a 22×1 inch gauge needle connected to polyurethane catheter type MRE-040 tubing (Braintree Scientific, Inc., Braintree, Mass.). The needle was inserted just below the nuchal crest at the area of the foramen magnum, and clear CSF fluid was collected into the catheter and transferred into a collection tube. The CSF samples were centrifuged at 5,400 rpm at 4° C. for 5 min, and 100 μl CSF fluid was transferred from each sample into a fresh tube. The plasma and CSF samples were immediately placed in dry ice and then stored in a −80° C. freezer until analysis by high performance liquid chromatography/mass spectrometry (HPLC/MS). In order to study Compound TP-1 and tapentadol plasma and CSF penetration over time, additional groups of 4 rats were administered compounds as described above and anesthetized at specified time points. Plasma and CSF were collected and analyzed as described above.\nResults in Table 14 are reported, for each group of four rats, as mean concentrations of the indicated compounds in plasma or CSF. Table 14 also provides the plasma-to-CSF (plasma/CSF) partitioning coefficient, i.e., the ratio of concentration in the plasma to concentration in the CSF of the indicated compounds."}, "[8]": {"test_system": "norepinephrine uptake into rat hypothalamus synaptosomes", "assay": "In vitro functional norepinephrine uptake assay", "type": "biochemical", "method": "The general procedure follows the protocol described by S. Perovic and W. E. G. Muller, 1995, Arzneim-Forsch. Drug Res. 45, 1145-1148. More specifically, the assays included each of the compounds indicated in Table 13 and rat hypothalamus synaptosomes incubated with 0.2 μCi/mL [^3H] norepinephrine. For a control reaction, protriptyline was used. The reaction mixtures were incubated at 37° C. for 20 min, and the reaction product of [^3H] norepinephrine incorporation into the synaptosomes was measured by scintillation counting. IC50 values (concentration causing a half-maximal inhibition of control specific activity) were determined by non-linear regression fit using Hill plot software."}, "[9]": {"conditions": "pH 8, with Compound 109 (trypsin inhibitor), Compound 109 40 μM"}, "[10]": {"conditions": "TP-1 10 mg/kg, tapentadol 4 mg/kg"}},
  "note": "“Also recorded” adds a separate entry of the source. Where a name gives a salt, the structure may show the parent alone. Read-outs that look alike come from different tables or passages of the source.",
  "data": [
    {"compound": "N=C(N)c1ccc2cc(OC(=O)c3ccc(N=C(N)N)cc3)ccc2c1", "note": "[Compound 109, 6-carbamimidoylnaphthalen-2-yl 4-(diaminomethyleneamino)benzoate]", "values": [
      {"measurement": "effect of co-dosed Compound 109 on release of tapentadol from prodrug", "setting": "[1]", "value": "attenuates Compound TP-1's ability to release tapentadol; also recorded: attenuates the abilities of both Compound TP-3 and Compound TP-4 to release tapentadol; also recorded: can attenuate the abilities of both Compound TP-1 and Compound TP-3 to release tapentadol"}
    ]},
    {"compound": "CC[C@@H](c1cccc(OC(=O)N(C)CCNC(=O)[C@H](CCCCN)NC(=O)CC(=O)O)c1)[C@@H](C)CN(C)C", "note": "[Compound TP-3, N—[(S)-5-Amino-1-(2-{[3-((1R,2R)-3-dimethylamino-1-ethyl-2-methyl-propyl)-phenoxycarbonyl]-methyl-amino}-ethylcarbamoyl)-pentyl]-malonamic acid]", "values": [
      {"measurement": "Cmax", "setting": "[2]", "value": "1.47 ± 0.099", "unit": "µg/mL"},
      {"measurement": "tapentadol plasma concentration profile compared to administration of tapentadol", "setting": "[3]", "value": "suppressed Cmax and delayed Tmax"},
      {"measurement": "half-life at 0.761 nM", "setting": "[4]; [9]", "value": "12.2 ± 0.33", "unit": "h"},
      {"measurement": "half-life at 0.761 nM", "setting": "[4]; pH 8, Compound 109 0 μM", "value": "0.271 ± 0.0023", "unit": "h"},
      {"measurement": "Rate of TP formation, Average ± sd", "setting": "[5]; Compound 109 0 μM", "value": "0.0258 ± 0.0024", "unit": "umol/h/BAEE U"},
      {"measurement": "Rate of TP formation, Average ± sd", "setting": "[5]; Compound 109 40 μM", "value": "0.0048 ± 0.0000", "unit": "umol/h/BAEE U"}
    ]},
    {"compound": "CC[C@@H](c1cccc(OC(=O)N(C)CC(C)(C)CNC(=O)[C@H](CCCNC(=N)N)NC(=O)CC(=O)O)c1)[C@@H](C)CN(C)C", "note": "[Compound TP-4, N—[(S)-1-(3-{[3-((1R,2R)-3-Dimethylamino-1-ethyl-2-methyl-propyl)-phenoxycarbonyl]-methyl-amino}-2,2-dimethyl-propylcarbamoyl)-4-guanidino-butyl]-malonamic acid]", "values": [
      {"measurement": "Cmax", "setting": "[2]", "value": "0.988 ± 0.089", "unit": "µg/mL"},
      {"measurement": "tapentadol plasma concentration profile compared to administration of tapentadol", "setting": "[3]", "value": "suppressed Cmax and delayed Tmax"},
      {"measurement": "half-life at 0.761 nM", "setting": "[4]; [9]", "value": "1.76 ± 0.22", "unit": "h"},
      {"measurement": "half-life at 0.761 nM", "setting": "[4]; pH 8, Compound 109 0 μM", "value": "0.0823 ± 0.0028", "unit": "h"},
      {"measurement": "Rate of TP formation, Average ± sd", "setting": "[5]; Compound 109 0 μM", "value": "0.0753 ± 0.0007", "unit": "umol/h/BAEE U"},
      {"measurement": "Rate of TP formation, Average ± sd", "setting": "[5]; Compound 109 40 μM", "value": "0.028 ± 0.0004", "unit": "umol/h/BAEE U"}
    ]},
    {"compound": "CC[C@@H](c1cccc(O)c1)[C@@H](C)CN(C)C", "note": "[Tapentadol, 3-[(1R,2R)-3-(dimethylamino)-1-ethyl-2-methylpropyl]phenol hydrochloride]", "values": [
      {"measurement": "agonist response in the μ-opioid receptor functional assay", "setting": "[6]", "value": "no response up to a concentration of 10 μM"},
      {"measurement": "Compound conc. in CSF", "setting": "[7]; [10]", "value": 0.179, "unit": "µg/mL"},
      {"measurement": "Compound conc. in Plasma", "setting": "[7]; [10]", "value": 1.87, "unit": "µg/mL"},
      {"measurement": "Plasma/CSF partitioning coefficient", "setting": "[7]; ratio of concentration in plasma to concentration in CSF", "value": 10.4},
      {"measurement": "IC50", "setting": "[8]; [3H] norepinephrine incorporation into rat hypothalamus synaptosomes, 37° C., 20 min", "value": 0.39, "unit": "µM"},
      {"measurement": "activity as a norepinephrine reuptake inhibitor", "setting": "[8]; rat hypothalamus synaptosomes", "value": "has activity as a norepinephrine reuptake inhibitor"}
    ]}
  ]
}
